Values quoted from earlier work, collected in patent publication US10722577B2, “Methods for treating GI syndrome and graft versus host disease” (Sloan Kettering Institute for Cancer Research, priority 2012, dated 2020).

Tested on: in vitro models of GvHD
Details: previous work, U.S. Ser. No. 12/599,280; cited from earlier work

Structure (SMILES): C[C@@H]1[C@H](O)[C@@H](C)/C=C/C=C/CC/C=C/C=C/C=C/C=C/C(O[C@H]2O[C@H](C)[C@@H](O)[C@H](N)[C@@H]2O)CC2O[C@](O)(CC(O)C(O)CCC(O)CC(O)CC(O)CC(=O)O[C@H]1C)CC(O)C2C(=O)O (stereo partly shown) [nystatin]
- apoptosis in in vitro models of GvHD: beneficial effects in reducing apoptosis
